Results from patent US8715947B2, “Inhibition of the interaction between 5T4 oncofoetal glycoproteins and CXC chemokine receptors as a method of identifying chemotaxis inhibitors” (Cancer Research Technology Limited, priority 2009, dated 2014).
“Also recorded” adds a separate entry of the source.

Experiments:
WT-ES cells = test: CXCL12 chemotaxis of WT-ES cells in transwell chambers; assay type: cell-based, mouse
Procedure: (§1) Chemotaxis was assessed using transwell chambers as previously described for cellular motility assays [16; the contents of which are expressly incorporated herein in their entirety] in the presence or absence of the chemokine CXCL12 (R&D systems), at a concentration of 10 ng/well for ES cell experiments, and 30 ng/well for all others. Inhibition studies were performed in the presence of 10 μM Diprotin A (Sigma) for CD26, 10 μM AMD3100 (Sigma) for CXCR4 or 10 μg/well mouse anti-CXCL12 (R&D systems) or Pertussis Toxin (Sigma, 10 ng/ml). For m5T4 specific mAb inhibition of chemotaxis or control Ig; antibodies were premixed with 50,000 differentiating WT-ES or MEF cells/ml and added to the transwell chambers as above. CXCL16 (R&D 10 ng/ml), the ligand for CXCR6 and CXCL10 (R&D 100 ng/ml), a ligand for CXCR3 were used to assess chemotaxis in undifferentiated and/or differentiating WT and 5T4KO ES cells.

CXCR4 [1] = biological target: T1, CXCR4 (Mus musculus, UniProt P70658); conditions: in vivo; cited from earlier work
T1 sequence (P70658 whole entry): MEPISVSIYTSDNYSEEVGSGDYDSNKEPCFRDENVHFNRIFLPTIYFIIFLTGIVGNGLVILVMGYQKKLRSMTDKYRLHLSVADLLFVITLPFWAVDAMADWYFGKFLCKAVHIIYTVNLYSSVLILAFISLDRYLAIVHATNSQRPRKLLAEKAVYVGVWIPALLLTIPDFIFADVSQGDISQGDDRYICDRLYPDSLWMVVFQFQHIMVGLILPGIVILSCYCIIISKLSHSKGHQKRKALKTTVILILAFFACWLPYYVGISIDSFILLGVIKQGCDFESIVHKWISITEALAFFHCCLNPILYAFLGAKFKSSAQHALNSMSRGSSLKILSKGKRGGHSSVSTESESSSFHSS

ERK phosphorylation = ERK phosphorylation in MEFs by Western blot; assay type: cell-based, mouse; conditions: 50 μM PD98059, 50 μM LY294002 or 10 μM AMD3100; for increase in ERK phosphorylation in response to CXCL12 stimulation: WT MEFs; for increase in ERK1/2 phosphorylation in response to PMA stimulation: WT and 5T4KO MEFs
Procedure: Western blots were carried out using a BioRad Mini-PROTEAN Tetra (Thermo Fisher) supplemented with protease and phosphatase inhibitor cocktails (Thermo Fisher). RIPA buffer (50 mM Tris-Cl pH 7.4, 150 mM NaCl, 1% NP40, 0.25% Na-deoxycholate, 1 mM PMSF and protease and phosphatase inhibitor cocktail) was used as an alternative method of cell lysis. […] Other primary antibodies used were ERK1/2, phospho-ERK1/2 (Thr202/Tyr204/Thr185/Tyr187), AKT and phospho-AKT (Thr308) (Cell Signalling Technology) at 1:1000. Following secondary antibody labelling using appropriate HRP conjugates (AbSerotec) hybridizing bands were detected using SuperSignal West Dura (Thermo Fischer). For immunoprecipitation experiments cells were lysed in M-PER (Thermo Fischer) according to manufacturer's instructions and enriched for the membrane fraction on a 45% sucrose gradient by ultracentrifugation. 100 μg of the membrane enriched fraction was incubated with 1 μg of rabbit polyclonal anti-CXCR4 (Abcam) or 1 μg of mouse anti-monoclonal h5T4 or appropriate irrelevant control antibodies for 1 hour at room temperature. A 50% slurry of Protein G beads (Amersham) was then added and incubated for 1 hour at room temperature. Beads were subsequently washed 7 times with 1 ml PBS+0.1% Triton X-100, and then resuspended in PAGE loading buffer (Thermo Fisher), boiled for 3 minutes and loaded onto 4-15% gradient gel and processed as described for Westerns above. Gels were run in Lamelli buffer (25 mM Tris-base, 192 mM glycine, 0.1% SDS). Antibodies to CXCR7 were used in western blot analysis of PAGE separated MEF cells solubilised 1%.

CXCR4 [2] = biological target: T1, CXCR4; conditions: in vivo; cited from earlier work; remark: listed apart in the source
[3] = test system: primary murine embryonic fibroblasts; test: Immunofluorescence pattern of 5T4 and CXCR4 in primary murine embryonic fibroblasts after cytoskeleton, Golgi or microtubule disruption; assay type: cell-based, mouse; conditions: for cell surface expression and colocalisation of 5T4 and CXCR4 after washout: one hour after washout; for cell surface expression and colocalisation of 5T4 and CXCR4 versus untreated controls: 985 nM cytochalasin D or 3.6 μM brefeldin A
Procedure: Immunofluorescence In Situ. These studies were performed using methods described previously (39), with cells grown on 24 well glass bottomed plates, (Iwaki, supplied through Jencons) for ES cells the wells were pre coated with 0.1% gelatine. Primary antibodies used were rabbit anti-CXCR4, (5 μg/ml) (Abcam), rat-anti-DPIV (5 μg/ml), (R&D), mAb anti-human 5T4 (10 μg/ml,), mAb anti-m5T4, 9A7 (20 μg/ml), B3F1 (5 μg/ml), rabbit anti-CXCR7 (AbCam, 5 μg/ml), rat mAb anti-CXCR6 (R&D, 5 μg/ml), rat mAb anti-CXCR3 (R&D, 5 μg/ml), Alexa Fluor 488 mouse anti-myc tag clone 4A6 (Millipore) or appropriate isotype controls. Secondary detection was performed by incubation for 1 hour at 4° C. with species or IgG sub-class specific Alexa Fluor conjugated secondary antibodies (Invitrogen) (6 μg/ml) as appropriate for multiple antigen detection. Labelling of the endoplasmic reticulum and Golgi apparatus was performed using NBD C6-Ceramide or Endotracker, (Invitrogen, Molecular Probes) as per manufacturer's instructions. […]. F-Actin was labeled using Phaloidin-633 Alexa Fluor (Invitrogen). Microtubules were visualised by murine IgG recognizing β-tubulin (Cancer Research UK). Cells were imaged on a Zeiss Axiovert 200M with a plan-fluar ×100 1.45NA objective lens and a Roper Cascade EMCCD 512B camera. Illumination was achieved using a 300W Xenon system, (Sutter) which presented the system as an even field of illumination in addition to the appropriate neutral density and Schott filters to modulate the light source. Wavelength selection was achieved using external filter wheels, (Applied Scientific Instrumentation) and the ETSedat set, (Chroma). Data sets were captured with an axial resolution of 100 nm using the MS-2000 stage (Applied Scientific Instrumentation) and a lateral resolution of 0.1645 microns per pixel. The system was full controlled and automated via the FRAP-AI software, (MAG Biosystems/Metamorph). All of the data sets were deconvolved using Huygens (Scientific Volume Imaging) after which visualization and analysis was carried out using Imaris, (Bitplane). Colocalisation was assessed by analysis of the deconvolved images utilising ImarisColoc software (Bitplane) in manual mode. A 2D scatter plot showing intensity pairs in the image was thresholded to include only colocalized points in the three dimensional volume.
Primary murine embryonic fibroblasts were assessed for their pattern of 5T4 and CXCR4 expression by immunofluorescence following disruption of the cytoskeleton, Golgi or microtubules for 24 hours with cytochalasin D, brefeldin A or nocodazole respectively. Cytoskeleton, Golgi and microtubule disruption was determined by immunofluorescence with AlexaFluor 633 conjugated phalloidin, BODIPY labeled NBD C6 ceramide and anti-tubulin antibodies respectively. […] Clearly plasma membrane detection of co-localized 5T4/CXCR4 molecules is dependent on microtubules and the molecules are not obligatorily associated at the Golgi.

SKOV3 = test: CXCL12 chemotaxis of SKOV3 ovarian carcinoma cells; assay type: cell-based, human; conditions: 10 μM diprotin A, 10 ng/well CXCL12
Procedure: as §1, with “at a concentration of 10 ng/well for ES cell experiments, and 30 ng/well for all others.” left out
A series of 5T4 constructs were built for this study and cloned into pCMVα, and the retroviral vector SFβ91 [32] that we had previously inserted the cDNA cassette eGFP under the transcriptional control of an IRES (Clonetech). […] A multiplicity of 30 infectious units per cell led to 100% of cells expressing m5T4 or h5T4 or GFP at 48 hours as assessed by FACS and when other biological assessments were made. […] After 3 days, GFP positive cells were FACS sorted and assessed for 5T4 expression and chemotaxis to CXCL12.

JEG-3 = test: CXCL12 chemotaxis of JEG-3 choriocarcinoma cells; assay type: cell-based, human; conditions: 10 μM diprotin A, 30 ng/well CXCL12
Procedure: as §1

WT and 5T4KO ES cells = test: CXCL10 chemotaxis of ES cells; assay type: cell-based, mouse; conditions: 100 ng/well CXCL10
5T4KO ES cells = test: CXCL12 chemotaxis of 5T4KO ES cells in transwell chambers; assay type: cell-based, mouse; conditions: undifferentiated or differentiating 5T4KO ES cells; 10 μM
Procedure: as §1

CAOV3 = test: CXCL12 chemotaxis of CAOV3 ovarian carcinoma cells; assay type: cell-based, human; conditions: 10 μM diprotin A, 10 ng/well CXCL12
Procedure: as §1, with “at a concentration of 10 ng/well for ES cell experiments, and 30 ng/well for all others.” left out

c1cc(CN2CCCNCCNCCCNCC2)ccc1CN1CCCNCCNCCCNCC1 [AMD3100]
chemotaxis to CXCL12 with CXCR4 inhibitor (WT-ES cells; differentiating WT-ES cells, 2 hr pre-incubation with 10 μM): blocked
chemotaxis to CXCL12 with CXCR4 inhibitor (WT-ES cells; undifferentiated WT-ES cells, 10 μM): no effect
allergic lung inflammation and airway hyperreactivity (CXCR4 [1]): attenuates
increase in ERK phosphorylation in response to CXCL12 stimulation (ERK phosphorylation): prevented
increase in ERK1/2 phosphorylation in response to PMA stimulation (ERK phosphorylation): independent of both CXCR4 and PI3K activity

c1ccc(CNCc2ccc(CN3CCCNCCNCCCNCC3)cc2)nc1 [AMD3465]
pulmonary granuloma formation (CXCR4 [2]): eliminates

COC(=O)Nc1nc2ccc(C(=O)c3cccs3)cc2[nH]1 [nocodazole]
cell surface detection of 5T4 ([3]; 24 hours, 332 nM nocodazole): remained detectable at the cell surface albeit at a diminished level; also recorded: still detectable at the cell surface albeit at a diminished level
cell surface detection of CXCR4 ([3]; 24 hours, 332 nM nocodazole): no cell surface detection of CXCR4
cell surface expression and colocalisation of 5T4 and CXCR4 after washout [3]: both antigens were detectable at the cell surface with marked colocalisation similar to controls

CC[C@H](C)[C@H](N)C(=O)N1CCC[C@H]1C(=O)N[C@H](C(=O)O)[C@@H](C)CC [diprotin A]
CXCL12 chemotaxis with CD26 inhibitor (SKOV3): further enhanced
CXCL12-mediated chemotaxis with CD26 inhibitor (JEG-3): only evident in the presence
chemotaxis towards CXCL10 with CD26 inhibitor (WT and 5T4KO ES cells; undifferentiated ES cells, 10 μM): acquire increased chemotaxis towards CXCL10
chemotactic response to CXCL12 with CD26 inhibitor (5T4KO ES cells): did not restore chemotactic behaviour; also recorded: no change in chemotactic response
CXCL12 chemotaxis with CD26 inhibitor (CAOV3): further enhanced

C[C@H]1CCC/C=C/[C@@H]2C[C@H](O)C[C@H]2[C@H](O)/C=C/C(=O)O1 [brefeldin A]
cell surface expression and colocalisation of 5T4 and CXCR4 versus untreated controls ([3]; 24 hours): reduced levels of cell surface expression of both antigens
cell surface expression and colocalisation of 5T4 and CXCR4 after washout [3]: returned to normal levels; also recorded: returned to levels with marked cell surface colocalisation similar to that of controls

pertussis toxin
CXCL10 related chemotaxis with Gi protein inhibitor (WT and 5T4KO ES cells; WT and KO differentiating ES cells, 10 ng/ml): inhibits CXCL10 related chemotaxis

C=C1[C@@H](C)[C@H]2[C@H](Cc3ccccc3)NC(=O)[C@]23[C@H](OC(C)=O)/C=C/[C@@](C)(O)C(=O)[C@@H](C)C/C=C/[C@H]3[C@@H]1O [cytochalasin D]
polymerized actin filaments (phalloidin immunofluorescence) ([3]; 24 hours treatment, 985 nM cytochalasin D): no polymerized actin filaments were detectable
cell surface expression and colocalisation of 5T4 and CXCR4 versus untreated controls ([3]; 24 hours): no detectable differences

COc1cccc(-c2cc(=O)c3ccccc3o2)c1N [PD98059]
increase in ERK phosphorylation in response to CXCL12 stimulation (ERK phosphorylation): prevented
increase in ERK1/2 phosphorylation in response to PMA stimulation (ERK phosphorylation): blocked by MEK1 inhibition
